The values that follow come from patent US9394288B2, “Compositions and methods for the treatment of asthma and allergy” (CELLIX BIO PRIVATE LIMITED, priority 2012, dated 2016).

This assay concerns TNB/ethanol colitis. The assay is described as follows: Intracolonic administration in rat model of chronic colitis (TNB/ethanol): macroscopic colonic damage. Type of assay: in vivo, Sprague-Dawley rats. The conditions noted are these: for macroscopic damage score: after four weeks of treatment, daily enema 50 mg/kg (Formula I (1-1): zileuton equivalent), p=0.026. As to the method: Female virgin Sprague-Dawley rats weighing 200-250 g were used in this study. The animals were maintained in a restricted access room with controlled temperature (23° C.) and light/dark cycle (16 h:8 h). The rats were housed in individual isolated rack mounted wire cages.
TNB/ethanol colitis was induced in 90 rats. Animals were thereafter randomised into four therapeutic groups to receive daily, from day 1 (24 hours after induction of colitis):
Group A (n=30)−0.25 ml of vehicle solution enema (1-5% carboxymethylcellulose in saline serum) (placebo group).
Group B (n=30)−0.25 ml of the vehicle solution enema added with 50 mg/kg of body weight of 5-ASA.
Group C (n=30)−0-25 ml of the vehicle solution enema added with 50 mg/kg of body weight of zileuton.
Group D (n=30)−0-25 ml of the vehicle solution enema added with 50 mg/kg of body weight of Formula I (1-1) equivalent of zileuton.
In addition, sham colitis was induced, by intrarectal administration of 0-25 ml of 0.9°/0 saline, in 10 rats (control group). At day 1 and 3, and at weeks 1, 2, and 4, 10 rats from groups A, B, C and D were randomly selected for the assessment of eicosanoid release in the lumen of the colon by intracolonic dialysis. Rats were anaesthetised with 100 mg of intraperitoneal thiopental and intracolonic dialysis was performed using hydrated Visking seamless cellulose tubing (8/32, 6-3 mm diameter, 7 cm long; Medicell International, London) attached by a 10 cm polyurethane cannula to an external syringe. After inserting the entire cannula into the distal colon, the dialysis bag was filled with 1 ml of dialysis solution, consisting of 0.3°/o bovine serum albumin in a solution of 120 mmol/1 NaCl and 30 mmol/1 KHCO3 adjusted to pH 7.90. One hour later, the fluid was withdrawn and immediately stored at −30 C. The volume of the dialysate recovered at the end of the one hour period was higher than 90%. In the control group (n=10), an intracolonic dialysis was performed in the same way 24 hours after the sham colitis induction. The day after the dialysis was performed at weeks 1, 2, and 4, the same animals were given a distal colectomy under total anaesthesia with 100 mg of intraperitoneal thiopental, to assess colonic inflammation macroscopically and histologically. The excised colon was opened longitudinally, rinsed with normal saline, pinned out on a wax block, and assigned a code number. Mucosal damage was assessed macroscopically as described later. Afterwards, three tissue specimens (2×10 mm) were obtained from the colon. When no severely visible inflammation was present, the specimens were taken from the regions 1 cm, 3 cm, and 8 cm proximal to the anus. When visible lesions were present, the specimens were taken from the affected regions. Tissue samples were fixed in formaldehyde and routinely processed. […]

For `Nc1ccc(O)c(C(=O)O)c1` [5-ASA], the macroscopic damage score is listed as 7.3 (0.7).

Regarding `CC/C=C\C/C=C\C/C=C\C/C=C\C/C=C\CCCC(=O)NC(=O)N(O)C(C)c1cc2ccccc2s1` (stereo not shown) [Formula I (1-1)], the macroscopic damage score is 4.36 (0.6). Further, under “at four weeks, compared with 5-ASA, zileuton and placebo”, the “all parameters measured by the score, mainly the development of strictures” value is reported as “improved”.

With `CC(c1cc2ccccc2s1)N(O)C(N)=O` (stereo not shown) [zileuton], the macroscopic damage score is 5.6 (0.7).
